From PubChem BioAssay AID2060353 (Molecular Pharmacology Branch, DTP, NCI, 2025)
Several values for one entry are separate records, joined by “and”; a condition that tells them apart may be missing. Equal entries are not always repeated.

System: 521955-158-R2-J5-PDC spheroids with stroma, growth inhibition
Assay: Anticancer human tumor 521955-158-R2-J5-PDC patient-derived pancreatic carcinoma cell line growth inhibition [TAK]
Details: for viability, T/C: stronger effect = lower value
Description: Combinatorial screen of targeted agents with TAK-243 and ipatasertib in multi-cell type tumor spheroids
A high-throughput screen of multi-cell type tumor spheroids was designed to identify active combinations of targeted small molecules and TAK-243 or ipatasertib. Complex spheroids include a stromal component modeled by human endothelial cells (HUVEC) and fibroblasts modeled by human mesenchymal stem cells (MSCs). The concentration ranges selected for each drug and investigational agent were based upon clinically achievable concentrations if the clinical Cmax of the agent was known.
Compounds. The drugs and investigational agents: TAK-243 (785004), ipatasertib (767898), everolimus (733504), selumetinib (741078), bortezomib (756655), trametinib (758246), ixazomib (758254), vemurafenib (761431), dabrafenib (764134), sapanisertib (764658), alpelisib (765974), and copanlisib (816437), were obtained from the National Cancer Institute (NCI) Developmental Therapeutics Program Chemical Repository. The FDA-approved anticancer drug set is available from the NCI Developmental Therapeutics Program. […] The stock solutions were prepared in dimethyl sulfoxide (DMSO, Sigma-Aldrich, St. Louis, MO, cat. D2650) at 800-fold the tested concentration and stored at -70 degrees C prior to their use. All drugs and investigational agents were tested over a range starting from a high concentration at or near the clinical Cmax and decreasing in half-log increments. If the clinical Cmax for an agent had not been determined, the highest concentration tested was 10 microM.
NCI60 Cell Culture. NCI60 cell lines were obtained from the NCI Developmental Therapeutics Program Tumor Repository. For each lot of cells, the Repository performed Applied Biosystems AmpFLSTR Identifiler testing with PCR amplification to confirm consistency with the published Identifier STR profile for each cell line. Cells were kept in continuous culture for no more than 20 passages. The optimal seeding densities for each of the cell lines at each time point assessed were determined prior to performing the concentration response studies. Briefly, the NCI60 human tumor lines were grown as monolayers in RPMI 1640 medium supplemented with 10% FBS and 2 mmol/L L-glutamine.
An additional 2 lines were from the NCI60 cell line panel including melanomas, MALME-3M and SK-MEL-2. Pooled donor human umbilical vein endothelial cells (HUVEC, Lonza, cat. CC-2519) and human mesenchymal stem cells (hMSC, Lonza, cat. PT-2501) were purchased from Lonza (Walkersville, MD).
PDMR cell lines were grown in complete medium (DC medium): Dulbecco's modified Eagle's medium (DMEM)/F12 supplemented with 5% fetal bovine serum (FBS), 2 mM L-glutamine, 100 U/mL penicillin and 100 µg/ml streptomycin, 0.4 µg/ml hydrocortisone, 10 ng/ml epidermal growth factor (EGF) recombinant human protein, 24 µg/mL adenine, and 0.1 mg/mL primocin. During culture from frozen stock vials, PDMR cells were cultured in the same medium containing 10 µM Y-27632 (see Table 3). The PDCs were cultured in complete DMEM/F12 media without 10 microM Y-27632 dihydrochloride for at least two passages prior to the screen. The pooled donor HUVEC and hMSC were cultured in endothelial cell growth medium 2 (PromoCell, Heidelberg, Germany, cat. C-22011) and mesenchymal stem cell growth medium 2 (PromoCell, cat. C-28009), respectively. For all experiments, HUVEC and hMSC were used at passages </=5.
For the pre-screen, cell seeding densities were determined from a titration spanning the range from 5,000 to 313 cells per well. The mct-spheroids including 60% malignant cells, 25% HUVEC and 15% MSC dispensed as a mixture into U-bottom Ultra-Low Attachment 384-well plates (Corning, NY)
High-throughput Drug Combination Screening.
Prior to their inoculation into 384-well plates, malignant cells, HUVEC, and hMSC were removed from T flasks using TrypLE express (Thermo Fisher Scientific, cat. 12605036) and harvested by centrifugation for 5 min at 233 x g. […]
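Further: spheroids exposed to drugs for seven days before readout.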
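Wherever viability, T/C is given: 100% = DMSO vehicle control viability.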

In the case of `CC(=O)Nc1cccc(-n2c(=O)n(C3CC3)c(=O)c3c(Nc4ccc(I)cc4F)n(C)c(=O)c(C)c32)c1`, the viability, T/C (compound 94.9 pM) is reported as 104% and 87%, the viability, T/C (compound 0.0003 µM) is reported as 79.1% and 65.4% and the viability, T/C (compound 0.000949 µM) is reported as 52% and 51.3%. The viability, T/C (compound 0.003 µM) was 48.2% and 48.1%, the viability, T/C (compound 0.00949 µM) was 38.6% and 39.5% and the viability, T/C (compound 0.03 µM) was 27.5% and 24.4%. The IC50 (curve of compound) was 1.87 nM and 1.69 nM.

`CC(C)(C)c1nc(-c2cccc(NS(=O)(=O)c3c(F)cccc3F)c2F)c(-c2ccnc(N)n2)s1` was tested, and the viability, T/C (compound 0.0316 µM) was 102% and 112%, the viability, T/C (compound 0.1 µM) was 112% and 117% and the viability, T/C (compound 0.316 µM) was 140% and 170%. For the same compound, the viability, T/C (compound 1 µM) was 160% and 186%, the viability, T/C (compound 3.16 µM) was 114% and 125% and the viability, T/C (compound 10 µM) was 88.9% and 92.2%. For the same compound, the IC50 (curve of compound) was > 10000 nM.

For `CC(C)CC(NC(=O)C(Cc1ccccc1)NC(=O)c1cnccn1)B(O)O` (stereo not given), the viability, T/C (compound 31.6 pM) was 94.9% and 116%, the viability, T/C (compound 0.0001 µM) was 90.7% and 91.3% and the viability, T/C (compound 0.000316 µM) was 91.3% and 92.2%. For the same compound, the viability, T/C (compound 0.001 µM) was 95.1% and 117%, the viability, T/C (compound 0.00316 µM) was 105% and 99.9% and the viability, T/C (compound 0.01 µM) was 12.7% and 7.91%. For the same compound, the IC50 (curve of compound) was 5.96 nM and 6.03 nM.

For `CC(C)CC(NC(=O)CNC(=O)c1cc(Cl)ccc1Cl)B1OC(=O)CC(CC(=O)O)(C(=O)O)O1` (stereo not given), the viability, T/C (compound 0.000316 µM) was 102% and 105%, the viability, T/C (compound 0.001 µM) was 111% and 93.8% and the viability, T/C (compound 0.00316 µM) was 96.3% and 92%. The viability, T/C (compound 0.01 µM) was 93.5% and 92.7%, the viability, T/C (compound 0.0316 µM) was 80.1% and 72.8% and the viability, T/C (compound 0.1 µM) was 10% and 7.07%. For the same compound, the IC50 (curve of compound) was 50.8 nM and 47 nM.

In the case of `CC(C)NCC(C(=O)N1CCN(c2ncnc3c2C(C)CC3O)CC1)c1ccc(Cl)cc1` (stereo not given), the viability, T/C (compound 0.3 µM) is reported as 101% [middle of 10 runs], the viability, T/C (compound 0.949 µM) is reported as 81.5% [middle of 10 runs] and the viability, T/C (compound 3 µM) is reported as 82.7% [middle of 10 runs]. The viability, T/C (compound 30 µM) was 56.5% [middle of 10 runs] and the IC50 (compound alone, run of 02/20/2020) was > 30000 nM.

`CC(C)n1nc(-c2ccc3oc(N)nc3c2)c2c(N)ncnc21` was tested, and the viability, T/C (compound 0.000316 µM) was 107% and 99.8%, the viability, T/C (compound 0.001 µM) was 89.1% and 102% and the viability, T/C (compound 0.00316 µM) was 80.7% and 95.7%. The viability, T/C (compound 0.01 µM) was 79.8% and 95.6%, the viability, T/C (compound 0.0316 µM) was 51.6% and 63.9% and the viability, T/C (compound 0.1 µM) was 39% and 41.8%. For the same compound, the IC50 (curve of compound) was 47.2 nM and 65.2 nM.

`CCCS(=O)(=O)Nc1ccc(F)c(C(=O)c2c[nH]c3ncc(-c4ccc(Cl)cc4)cc23)c1F` was tested, and the viability, T/C (compound 0.316 µM) was 77.5% and 89.5%, the viability, T/C (compound 1 µM) was 89% and 87.9% and the viability, T/C (compound 3.16 µM) was 132% and 116%. The viability, T/C (compound 10 µM) was 149% and 164%, the viability, T/C (compound 31.6 µM) was 165% and 24.2% and the viability, T/C (compound 100 µM) was 187% and 232%. The IC50 (curve of compound) was > 100000 nM.

For `COC1CC2CCC(C)C(O)(O2)C(=O)C(=O)N2CCCCC2C(=O)OC(C(C)CC2CCC(OCCO)C(OC)C2)CC(=O)C(C)C=C(C)C(O)C(OC)C(=O)C(C)CC(C)C=CC=CC=C1C` (stereo not given), the viability, T/C (compound 0.000316 µM) was 102% and 111%, the viability, T/C (compound 0.001 µM) was 105% and 97.8% and the viability, T/C (compound 0.00316 µM) was 90.8% and 91.6%. The viability, T/C (compound 0.01 µM) was 93.4% and 91.1%, the viability, T/C (compound 0.0316 µM) was 86.8% and 89.5% and the viability, T/C (compound 0.1 µM) was 73.8% and 66.2%. For the same compound, the IC50 (curve of compound) was > 100 nM.

For `COc1c(OCCCN2CCOCC2)ccc2c3n(c(=NC(=O)c4cnc(N)nc4)nc12)CCN3`, the viability, T/C (compound 0.00316 µM) was 96.6% and 79.7%, the viability, T/C (compound 0.01 µM) was 71.7% and 68.7% and the viability, T/C (compound 0.0316 µM) was 48.8% and 53.6%. The viability, T/C (compound 0.1 µM) was 29.3%, the viability, T/C (compound 0.316 µM) was 9.38% and 8.89% and the viability, T/C (compound 1 µM) was 8.06% and 7.65%. The IC50 (curve of compound) was 28.8 nM and 36.1 nM.

In the case of `Cc1nc(NC(=O)N2CCCC2C(N)=O)sc1-c1ccnc(C(C)(C)C(F)(F)F)c1` (stereo not given), the viability, T/C (compound 0.0316 µM) is reported as 90.1% and 88.9%, the viability, T/C (compound 0.1 µM) is reported as 88.6% and 71.4% and the viability, T/C (compound 0.316 µM) is reported as 77.4% and 65.2%. The viability, T/C (compound 1 µM) was 62.1% and 51.6%, the viability, T/C (compound 3.16 µM) was 49.1% and 47.6% and the viability, T/C (compound 10 µM) was 35.7% and 40.8%. The IC50 (curve of compound) was 2680 nM and 1740 nM.

In the case of `Cn1cnc2c(F)c(Nc3ccc(Br)cc3Cl)c(C(=O)NOCCO)cc21`, the viability, T/C (compound 0.00949 µM) is reported as 77.5% and 65.7%, the viability, T/C (compound 0.03 µM) is reported as 49.3% and 60.3% and the viability, T/C (compound 0.0949 µM) is reported as 45.1% and 51.2%. For the same compound, the viability, T/C (compound 0.3 µM) was 42.5% and 42.8%, the viability, T/C (compound 0.949 µM) was 40.2% and 36% and the viability, T/C (compound 3 µM) was 34% and 28.5%. For the same compound, the IC50 (curve of compound) was 38.2 nM and 117 nM.

For `COC1CC2CCC(C)C(O)(O2)C(=O)C(=O)N2CCCCC2C(=O)OC(C(C)CC2CCC(OCCO)C(OC)C2)CC(=O)C(C)C=C(C)C(O)C(OC)C(=O)C(C)CC(C)C=CC=CC=C1C` (stereo not given) + CC(C)NCC(C(=O)N1CCN(c2ncnc3c2C(C)CC3O)CC1)c1ccc(Cl)cc1, the IC50 (curve of first compound, second compound 0.3 µM) was > 100 nM, the IC50 (curve of first compound, second compound 0.949 µM) was > 100 nM and the IC50 (curve of first compound, second compound 3 µM) was > 100 nM. For the same compound, the IC50 (curve of first compound, second compound 9.49 µM) was > 100 nM, the IC50 (curve of first compound, second compound 30 µM) was < 0.316 nM and the viability, T/C (second compound 0.3 µM, first compound 0.000316 µM) was 118%. It also gave a viability, T/C (second compound 0.3 µM, first compound 0.001 µM) of 95.9%, a viability, T/C (second compound 0.3 µM, first compound 0.00316 µM) of 77.3% and a viability, T/C (second compound 0.3 µM, first compound 0.01 µM) of 76%. For the same compound, the viability, T/C (second compound 0.3 µM, first compound 0.0316 µM) was 82.4%, the viability, T/C (second compound 0.3 µM, first compound 0.1 µM) was 65.5% and the viability, T/C (second compound 0.949 µM, first compound 0.000316 µM) was 79.4%. The viability, T/C (second compound 0.949 µM, first compound 0.001 µM) was 75.1%, the viability, T/C (second compound 0.949 µM, first compound 0.00316 µM) was 79.8% and the viability, T/C (second compound 0.949 µM, first compound 0.01 µM) was 79.7%. It also gave a viability, T/C (second compound 0.949 µM, first compound 0.0316 µM) of 89%, a viability, T/C (second compound 0.949 µM, first compound 0.1 µM) of 86.7% and a viability, T/C (second compound 3 µM, first compound 0.000316 µM) of 97.8%. The viability, T/C (second compound 3 µM, first compound 0.001 µM) was 98.3%, the viability, T/C (second compound 3 µM, first compound 0.00316 µM) was 93.9% and the viability, T/C (second compound 3 µM, first compound 0.01 µM) was 80.9%. It also gave a viability, T/C (second compound 3 µM, first compound 0.0316 µM) of 75.7%, a viability, T/C (second compound 3 µM, first compound 0.1 µM) of 76.2% and a viability, T/C (second compound 9.49 µM, first compound 0.000316 µM) of 78.3%. It also gave a viability, T/C (second compound 9.49 µM, first compound 0.001 µM) of 84.5%, a viability, T/C (second compound 9.49 µM, first compound 0.00316 µM) of 78.6% and a viability, T/C (second compound 9.49 µM, first compound 0.01 µM) of 68.3%. It also gave a viability, T/C (second compound 9.49 µM, first compound 0.0316 µM) of 60.9%, a viability, T/C (second compound 9.49 µM, first compound 0.1 µM) of 60.6% and a viability, T/C (second compound 30 µM, first compound 0.000316 µM) of 46.4%. It also gave a viability, T/C (second compound 30 µM, first compound 0.001 µM) of 42.2%, a viability, T/C (second compound 30 µM, first compound 0.00316 µM) of 33.8% and a viability, T/C (second compound 30 µM, first compound 0.01 µM) of 26.7%. The viability, T/C (second compound 30 µM, first compound 0.0316 µM) was 31.2% and the viability, T/C (second compound 30 µM, first compound 0.1 µM) was 32.4%.
